Data from patent publication US10017767B2, “Targets in multiple myeloma and other disorders” (FONDAZIONE CENTRO SAN RAFFAELE, priority 2012, dated 2018).

Experiments:
MM.1S MM cells = assay: MM.1S xenograft mouse model with inducible STK4 knockdown; format: in vivo, Fox Chase SCID mice; conditions: subcutaneous, 6 weeks; scrambled shRNA tumors 1965 mm^3
Method: A genetic approach conditionally knocking down STK4 in MM.1S cells was performed. In this study, MM.1S MM cells were infected with either inducible scrambled shRNAs, or inducible pLKO.1-TET shRNA #4 and pTRIPZ 63 directed against STK4 and then injected subcutaneously into three sites (left and right flank and interscapular region) in a group of 12 Fox Chase SCID mice.

ATM = assay: CHK2 (Thr68) phosphorylation immunoblot in MM cells; format: cell-based
ABL1 = ABL1 cytoplasmic/nuclear localization by subcellular fractionation and Western blot in MM cell lines; format: cell-based; conditions: 2-10 μM; 1, 2, 6 and 24 hs; MM.1S, H929, UTMC-2, JJN-3, KMS-20
Method: (§1) MM cells were harvested and lysed using lysis buffer: 50 mMTris-HCl (pH 7.4), 150 mM NaCl, 1% NP-40, 5 mM EDTA, 5 mM NaF, 2 mM Na3VO4, 1 mM PMSF, 5 μg/mL leupeptine, and 5 μg/mL aprotinin. Nuclear extracts were prepared using Nuclear Extraction Kit (Panomics). Cell lysates were subjected to sodium dodecyl sulfate-polyacrylamide gel electrophoresis SDS-PAGE, transferred to nitrocellulose membranes, and immunoblotted with different antibodies: ATM, phospho-ATM (Ser1981), ATR, phospho-ATR (Ser428), CHK2, phospho-CHK2 (Thr68), CHK1, phospho-CHK1 (Ser296), p21, p53, phospho-p53 (ser127), STK4, LATS1, phospho-LATS1 (Ser909), phospho-ABL1 (Thr735), cleaved caspase 3, cleaved PARP, histone H3, SAPK/JNK, phospho-SAPK/JNK (Thr183/Tyr185), GM130, GAPDH, and α-tubulin (Cell Signaling); STK4, Nuclear Matrix Protein p84 (Abeam), p73 (BD), phospho-H2A.X (Ser139) (Millipore); as well as ABL1, BAX, Puma, Noxa, actin and nucleolin (Santa Cruz Biotechnology).

YAP1 = YAP1 knockdown by lentiviral shRNA; format: cell-based
Method: Lentiviral short hairpin RNAs (shRNA) were used to knockdown YAP1 and STK4 expression in MM cells. Scrambled control pLKO.1 shRNA vectors and specific YAP1 and STK4 shRNA constructs were kindly provided by Dr. William Hahn (Dana-Farber Cancer Institute).
The efficacy of each shRNA in silencing gene expression was tested in HCT-116 and HeLa cell lines using Mirus Bio Trans-IT LT1 transfection reagent. To obtain stable silenced clones with YAP1/STK4 shRNA or pLKO.1 control plasmid, the following protocol was used. 293T cells were plated (300,000 cells on 6-cm plates) in DMEM/10% FBS/0.1% P/S. After 24 hours when cells were 60-70% confluent, 1000 ng of vector of interest together with 100 ng p-VSV-G and 900 ng delta 8.94 (both packaging vectors purchased from Addgene) were co-transfected with MIRUS BIO TransIT-LT1 diluted in OPTI-MEM (GIBCO). After 12 hours, 293T media was changed with DMEM/[…] to promote viral production. 24 and 48 hours post transfection, supernatant containing lentiviral particles was harvested, filtered with 0.45 μM diameter filter, and used to infect 2.5×10^6 MM cells. […] After the second cycle of infection, cells were put under selection with a suitable concentration of puromycin. mRNA and protein expression were evaluated 48 and 72 hrs after selection. […]

KMS-20 cells = assay: MTT viability assay, KMS-20; format: cell-based; conditions: KMS-20 YAP1-transfected; imatinib 10 μM from day 0
Method: (§2) Viability of MM cells was evaluated by 3-[4,5-dimethylthiazol-2-yl]-2,5-diphenyltetrazolium bromide (MTT) colorimetric survival assay. MM cells (20,000-50,000) were plated in 100 μL medium. At the various time points (24-96 hours), 10 μL 5 mg/mL MTT were added to plated cells. After 4 hour incubation at 37° C., medium was discarded and 100 μL MTT stop solution (Isopropanonol with […] Hcl) used to dissolve MTT metabolic products. Absorbance was read at 570 nm and background was subtracted at 630 nm, using spectrophotometer SPECTRAMAX M2 machine and Softmax Pro v5 software. Cellular growth was estimated by cell counting in triplicates, excluding dead cells stained by trypan blue.

[1] = MTT viability assay, KMS-20; format: cell-based; conditions: human, KMS-20 multiple myeloma cells, LACZ-transfected; read-out: 48 hour viability (MTT, normalized to LACZ+DMSO)
Method: as §2

YAP1, p73 = assay: Western blot of YAP1, p73 and p73 targets in MM.1S and U266; format: cell-based
Method: as §1

[2] = tested on: KMS-20 cells transfected with pLENTI4-YAP1-EGFP; assay: Apoptosis by Annexin V-PE/7AAD on GFP-positive YAP1-transfected cells; format: cell-based; conditions: YAP1 reintroduced; with imatinib 10 μM
Method: Cellular counting was performed in triplicate for each condition, with trypan blue exclusion. Right panel: Apoptosis by Annexin V-PE/7AAD, gating on GFP-positive cells. The percentage of viable cells (Annexin V-PE-/7AAD-cells) is shown at 48 hours.
p-ENTR-YAP1-EGFP plasmid was kindly provided by Dr. Marius Sudol and subcloned into pLENTI4-V5DEST vector using GATEWAY strategy. p-LENTI4-LACZ vector was used as control. KMS-18, KMS-20, MM.1S, RPMI-8226 and UTMC-2 cells (5,000,000) cells were transiently transfected with p-LENTI4 YAP1, using ‘Cell Line Nucleofector Kit V (Amaxa Biosystems, Köln, Germany), according to the manufacturer's instructions. AMAXA program: MM.1S→T-030; RPMI-8226→C-015; KMS-18, KMS-20 and UTMC-2→X-001. Specifically, 5×10^6 cells were resuspended in 100 μL V solution and 2500 ng of plasmid. Following transfection, MM cells were subjected to mRNA analysis, Western blotting, as well as apoptosis, cell counting, and MTT assays.
In particular, cells were washed twice with room-temperature PBS, resuspended in 100 μL of Annexin binding buffer, and stained with specific antibodies for 20 minutes. After adding other […] of Annexin binding buffer, samples were acquired using FACS Canto II machine from Becton Dickinson, BD, and analyzed with FCS EXPRESS 4 Flow Research Edition software.

MM.1S cells [3] = assay: MTT viability assay, MM.1S; format: cell-based, human; conditions: MM.1S YAP1-transfected; imatinib 10 μM from day 0
Method: as §2

U266 cell line = assay: MTT viability assay, U266; format: cell-based; conditions: 48 h
Method: as §2

U266 MM cell line [4] = assay: DNA damage markers and ABL1 localization in U266; format: cell-based; conditions: doxorubicin 40 nM
Method: MM cells were harvested and lysed using lysis buffer: 50 mMTris-HCl (pH 7.4), 150 mM NaCl, 1% NP-40, 5 mM EDTA, 5 mM NaF, 2 mM Na3VO4, 1 mM PMSF, 5 μg/mL leupeptine, and 5 μg/mL aprotinin. Nuclear extracts were prepared using Nuclear Extraction Kit (Panomics). […]
15,000 cells from MM cell lines, PBMCs or MM patient samples were cytospun for 5 minutes at 350-500 rpm, fixed in 4% paraformaldehyde (PFA) for 15 minutes, washed three times with PBS, and incubated with 0.1M glycin for 10 minutes to quench PFA autofluorescence. […] The slides were then mounted with ProLong Gold Antifade Reagent (Invitrogen), and images were taken using a Zeiss microscope (Carl Zeiss) equipped with Hamamatsu ORCA-ER camera (Hamamatsu Photonics) and analyzed with ImageJ software. […]

MM.1S cells [5] = assay: Apoptosis by Annexin V-FITC/PI staining, MM.1S; format: cell-based, human
Method: (§3) In particular, cells were washed twice with room-temperature PBS, resuspended in 100 μL of Annexin binding buffer, and stained with specific antibodies for 20 minutes.

MM.1S and UTMC-2 = assay: DNA damage markers and nuclear ABL1 in MM.1S and UTMC-2; format: cell-based, human; conditions: doxorubicin 40 nM
Method: as §1

UTMC-2 cells [6] = assay: MTT assay, UTMC-2; format: cell-based, human; conditions: doxorubicin 40 nM, 48 hours
Method: as §2

MTT assay, UTMC-2 = format: cell-based, human; conditions: human, UTMC-2 multiple myeloma cells; UTMC-2; doxorubicin 40 nM, 48 h; read-out: cell viability by MTT assay
Method: as §2

U266 MM cell line [7] = assay: Apoptosis by Annexin V-FITC/PI staining, U266; format: cell-based
Method: as §3

[8] = MTT viability assay, MM.1S; format: cell-based, human; conditions: human, MM.1S multiple myeloma cells; MM.1S; doxorubicin 40 nM, 48 h; read-out: cell viability by MTT assay
Method: as §2

UTMC-2 cells [9] = conditions: doxorubicin 40 nM, 48 h, before treatment 19.1%
[10] = MTT viability assay, U266; format: cell-based; conditions: human, U266 multiple myeloma cells
Method: as §2

pLKO.1-TET shRNA #4: inducible shRNA directed against STK4; clone #4 target sequence GCCAAGCGGAATACAGTGATA (the letters are possibly those of the target site)
xenograft tumor growth (MM.1S MM cells): no growth was evident

O=c1cc(-c2cccc3c2Sc2ccccc2S3)oc(N2CCOCC2)c1 [Ku55933]
CHK2 phosphorylation at Thr68 (ATM): reduction in CHK2 phosphorylation at Thr68
cytoplasmic and nuclear ABL1 levels (ABL1): increase in the levels of cytoplasmic ABL1, and a concomitant strong reduction of nuclear ABL1

shRNA #1: lentiviral shRNA targeting YAP1, CCCAGTTAAATGTTCACCAAT
knockdown of YAP1 (YAP1): robust knockdown of YAP1

Cc1ccc(NC(=O)c2ccc(CN3CCN(C)CC3)cc2)cc1Nc1nccc(-c2cccnc2)n1 [imatinib]
48 hour viability (MTT, normalized to LACZ+DMSO) (KMS-20 cells): 96.7%+8.9
viability at 48 h, 10 µM [1]: 103%
YAP1, p73 and p73-target expression triggered by DNA-damaging agents (YAP1, p73; doxorubicin 40 nM with imatinib 10 μM): stifled the increase in YAP1, p73 and p73-target expression
apoptotic cells after reintroduction of YAP1 [2]: 9.1%
48 hour viability (MTT, normalized to LACZ+DMSO) (MM.1S cells [3]): 86.1%±20.6
viability at 10 µM (U266 cell line; Homo sapiens, U-266, 48 h, doxorubicin 40 nM with imatinib 10 μM, doxorubicin alone 52.8%): 78.5%

shRNA #3: lentiviral shRNA targeting YAP1, CAGGTGATACTATCAACCAAA (the letters are possibly those of the target site)
knockdown of YAP1 (YAP1): robust knockdown of YAP1

COc1cccc2c1C(=O)c1c(O)c3c(c(O)c1C2=O)C[C@@](O)(C(=O)CO)C[C@@H]3O[C@H]1C[C@H](N)[C@H](O)[C@H](C)O1 [doxorubicin]
ABL1 localization (U266 MM cell line [4]): ABL1 moved to the nuclear compartment
γ-H2A.X foci, pATM and pJNK phosphorylation (U266 MM cell line [4]): induced multiple γ-H2A.X foci and strong pATM and pJNK phosphorylation
apoptosis (Annexin V-FITC/PI) (MM.1S cells [5]; doxorubicin 40 nM, 48 h, before treatment 12.4%): 55.3%
γ-H2AX, pATM, pJNK and nuclear ABL1 (MM.1S and UTMC-2): increase in γ-H2AX, pATM, and pJNK was evident, along with a major increase in nuclear ABL1
percentage of apoptotic cells by MTT assay (UTMC-2 cells [6]; UTMC-2 control cells): 37.4%
percentage of apoptotic cells by MTT assay (UTMC-2 cells [6]; UTMC-2 stably YAP1-silenced): 15.8%
viability at 48 h, 40 nM (MTT assay, UTMC-2): 66.5%
YAP1 and p73 protein levels (YAP1, p73; doxorubicin 40 nM): induced YAP1, as well as p73
apoptotic cells (Annexin V and PI staining) (U266 MM cell line [7]; doxorubicin 40 nM, 48 h, before treatment 13.1%): 40.1%
viability at 48 h, 40 nM [8]: 33.3%
apoptosis (Annexin V-FITC/PI) (UTMC-2 cells [9]): 57.8%
viable cells (MTT assay) (U266 cell line; doxorubicin 40 nM): 52.8%
viability at 48 h, 40 nM ([10]; doxorubicin 40 nM, 48 h, read-out: viable cells (MTT assay)): 50%

CCOc1cc2ncc(C#N)c(Nc3ccc(OCc4ccccn4)c(Cl)c3)c2cc1NC(=O)/C=C/CN(C)C [HKI-272]
apoptosis (Annexin V-FITC/PI) (MM.1S cells [5]; 10 μM, untreated 11%): 67%
apoptosis (Annexin V-PI) (U266 MM cell line [7]; 10 μM, untreated 10%): 43%
viability at 24 h, 10 µM ([10]; 10 μM, 24 h, read-out: 24 hour viability (MTT, normalized to DMSO)): 98.2%
viability at 48 h, 10 µM ([10]; 10 μM, 48 h, read-out: 48 hour viability (MTT, normalized to DMSO)): 87.8%
viability at 72 h, 10 µM ([10]; 10 μM, 72 h, read-out: 72 hour viability (MTT, normalized to DMSO)): 56.9%
viability at 96 h, 10 µM ([10]; 10 μM, 96 h, read-out: 96 hour viability (MTT, normalized to DMSO)): 17.9%
